Our source for the AC50 values is ChEMBL document CHEMBL5291721, “A preclinical secondary pharmacology resource illuminates target-adverse drug reaction associations of marketed drugs” (Nat Commun, 2023).

A value given as a limit tells only on which side of the number the result lay.

Test [1] has as its target T1, Amine oxidase [flavin-containing] A (Homo sapiens, UniProt P21397).
T1 sequence (P21397 whole entry): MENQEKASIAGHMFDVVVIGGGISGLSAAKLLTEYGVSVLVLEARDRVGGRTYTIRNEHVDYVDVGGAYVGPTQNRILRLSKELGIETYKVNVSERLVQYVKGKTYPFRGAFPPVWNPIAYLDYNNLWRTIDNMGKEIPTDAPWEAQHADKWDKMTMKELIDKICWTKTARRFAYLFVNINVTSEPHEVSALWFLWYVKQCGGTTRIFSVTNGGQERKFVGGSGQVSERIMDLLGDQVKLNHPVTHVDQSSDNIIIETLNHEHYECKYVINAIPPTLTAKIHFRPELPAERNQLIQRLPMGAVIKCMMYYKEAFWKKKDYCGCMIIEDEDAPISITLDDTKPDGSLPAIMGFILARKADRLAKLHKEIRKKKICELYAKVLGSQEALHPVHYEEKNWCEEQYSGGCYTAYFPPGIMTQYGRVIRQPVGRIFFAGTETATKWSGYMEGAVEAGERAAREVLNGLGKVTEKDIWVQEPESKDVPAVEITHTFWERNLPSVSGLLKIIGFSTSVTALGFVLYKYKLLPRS
It counts as functional.

The target of test [2] is T2, Alpha-1A adrenergic receptor (Homo sapiens, UniProt P35348).
T2 sequence (P35348 whole entry): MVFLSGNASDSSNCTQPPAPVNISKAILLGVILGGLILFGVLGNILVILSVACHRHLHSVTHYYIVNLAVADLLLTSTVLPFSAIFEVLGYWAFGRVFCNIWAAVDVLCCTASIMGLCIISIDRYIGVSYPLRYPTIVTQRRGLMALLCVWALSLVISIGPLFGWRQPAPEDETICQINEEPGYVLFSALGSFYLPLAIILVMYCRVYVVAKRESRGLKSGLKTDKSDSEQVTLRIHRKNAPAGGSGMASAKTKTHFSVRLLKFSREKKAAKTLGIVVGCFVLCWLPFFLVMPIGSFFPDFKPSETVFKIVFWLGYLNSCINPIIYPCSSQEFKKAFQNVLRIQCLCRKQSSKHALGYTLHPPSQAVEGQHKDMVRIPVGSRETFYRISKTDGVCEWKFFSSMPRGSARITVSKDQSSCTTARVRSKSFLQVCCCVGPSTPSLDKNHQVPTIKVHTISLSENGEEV
It counts as functional, cell-based.

For test [3], the target named is Vasopressin V1a receptor (Homo sapiens, UniProt P37288).
Sequence of Vasopressin V1a receptor (P37288 whole entry): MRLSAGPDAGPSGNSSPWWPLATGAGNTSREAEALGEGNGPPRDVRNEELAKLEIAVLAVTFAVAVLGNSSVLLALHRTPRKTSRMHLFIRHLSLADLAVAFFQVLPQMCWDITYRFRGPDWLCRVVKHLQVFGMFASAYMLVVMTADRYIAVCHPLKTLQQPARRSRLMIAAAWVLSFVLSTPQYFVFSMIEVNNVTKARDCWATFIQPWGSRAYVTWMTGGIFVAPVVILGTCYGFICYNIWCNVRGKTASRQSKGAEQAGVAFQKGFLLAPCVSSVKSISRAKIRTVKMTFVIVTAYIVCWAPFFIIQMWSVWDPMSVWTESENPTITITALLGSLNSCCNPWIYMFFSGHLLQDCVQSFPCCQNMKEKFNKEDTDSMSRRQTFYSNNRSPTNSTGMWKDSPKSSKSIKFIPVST
For test [4], the target named is Vasopressin V2 receptor (Homo sapiens, UniProt P30518).
Sequence of Vasopressin V2 receptor (P30518 whole entry): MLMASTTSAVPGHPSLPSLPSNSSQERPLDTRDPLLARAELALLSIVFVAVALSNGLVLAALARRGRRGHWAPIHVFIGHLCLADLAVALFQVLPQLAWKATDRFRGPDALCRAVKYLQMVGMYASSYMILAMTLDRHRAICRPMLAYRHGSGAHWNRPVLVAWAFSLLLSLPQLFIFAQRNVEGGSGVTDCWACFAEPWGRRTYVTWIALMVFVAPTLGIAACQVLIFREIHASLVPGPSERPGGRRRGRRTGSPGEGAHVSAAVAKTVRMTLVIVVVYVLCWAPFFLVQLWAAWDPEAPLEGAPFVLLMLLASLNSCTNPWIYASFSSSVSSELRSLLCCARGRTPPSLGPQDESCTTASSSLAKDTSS
The target of test [5] is T3, 5-hydroxytryptamine receptor 1A (Homo sapiens, UniProt P08908).
T3 sequence (P08908 whole entry): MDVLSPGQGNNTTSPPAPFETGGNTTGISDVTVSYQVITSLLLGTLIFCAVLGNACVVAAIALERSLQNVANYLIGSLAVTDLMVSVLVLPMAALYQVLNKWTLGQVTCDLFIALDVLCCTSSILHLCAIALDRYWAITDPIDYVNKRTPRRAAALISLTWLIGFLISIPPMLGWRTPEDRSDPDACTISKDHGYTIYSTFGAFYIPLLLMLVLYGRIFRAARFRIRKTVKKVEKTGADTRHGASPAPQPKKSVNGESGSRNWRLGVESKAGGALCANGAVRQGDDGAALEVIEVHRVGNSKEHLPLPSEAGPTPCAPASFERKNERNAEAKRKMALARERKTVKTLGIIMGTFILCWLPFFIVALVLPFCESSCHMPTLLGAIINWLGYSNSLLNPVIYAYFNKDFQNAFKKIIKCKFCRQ
It counts as functional, cell-based.

Test [6] addresses T4, Type-1 angiotensin II receptor (Homo sapiens, UniProt P30556).
T4 sequence (P30556 whole entry): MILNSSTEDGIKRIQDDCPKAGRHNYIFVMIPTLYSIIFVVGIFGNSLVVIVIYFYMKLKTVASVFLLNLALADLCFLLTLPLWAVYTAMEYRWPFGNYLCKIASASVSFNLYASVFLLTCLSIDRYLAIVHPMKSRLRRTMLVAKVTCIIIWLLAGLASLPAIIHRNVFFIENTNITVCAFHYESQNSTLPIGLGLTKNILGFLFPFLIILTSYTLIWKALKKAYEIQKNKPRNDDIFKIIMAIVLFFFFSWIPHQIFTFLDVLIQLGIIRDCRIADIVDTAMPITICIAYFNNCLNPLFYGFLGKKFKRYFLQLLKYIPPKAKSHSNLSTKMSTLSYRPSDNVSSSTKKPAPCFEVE

The target of test [7] is Neuronal acetylcholine receptor subunit alpha-4 (Homo sapiens, UniProt P43681).
Sequence of Neuronal acetylcholine receptor subunit alpha-4 (P43681 whole entry): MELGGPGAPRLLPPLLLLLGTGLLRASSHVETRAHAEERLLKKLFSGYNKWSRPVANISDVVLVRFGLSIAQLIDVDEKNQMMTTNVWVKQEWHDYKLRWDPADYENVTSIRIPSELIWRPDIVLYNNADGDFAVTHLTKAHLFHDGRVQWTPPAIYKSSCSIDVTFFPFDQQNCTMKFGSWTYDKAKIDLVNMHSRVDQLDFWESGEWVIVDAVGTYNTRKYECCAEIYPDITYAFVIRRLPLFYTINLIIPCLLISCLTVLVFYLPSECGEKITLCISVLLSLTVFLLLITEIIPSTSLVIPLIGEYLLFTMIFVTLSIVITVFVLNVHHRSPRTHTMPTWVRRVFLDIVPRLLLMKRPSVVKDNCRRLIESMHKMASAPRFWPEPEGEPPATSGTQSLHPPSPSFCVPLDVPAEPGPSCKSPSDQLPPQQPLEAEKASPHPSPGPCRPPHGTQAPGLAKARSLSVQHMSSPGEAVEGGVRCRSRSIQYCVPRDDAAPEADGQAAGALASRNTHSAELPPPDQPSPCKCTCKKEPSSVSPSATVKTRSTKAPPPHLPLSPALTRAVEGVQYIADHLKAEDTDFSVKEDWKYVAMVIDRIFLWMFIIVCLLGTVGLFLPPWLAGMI
Test [8] addresses T5, B2 bradykinin receptor (Homo sapiens, UniProt P30411).
T5 sequence (P30411 whole entry): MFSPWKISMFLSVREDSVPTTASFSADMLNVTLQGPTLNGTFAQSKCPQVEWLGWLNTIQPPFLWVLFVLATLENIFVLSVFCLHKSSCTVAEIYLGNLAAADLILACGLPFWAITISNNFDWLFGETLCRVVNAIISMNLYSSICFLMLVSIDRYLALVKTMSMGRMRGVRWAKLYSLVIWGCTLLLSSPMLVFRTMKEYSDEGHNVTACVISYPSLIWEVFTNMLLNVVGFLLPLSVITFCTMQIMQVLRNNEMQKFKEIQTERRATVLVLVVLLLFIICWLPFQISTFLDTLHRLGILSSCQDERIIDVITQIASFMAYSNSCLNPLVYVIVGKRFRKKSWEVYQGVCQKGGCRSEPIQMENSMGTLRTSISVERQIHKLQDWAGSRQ

In test [9] the target is Gamma-aminobutyric acid receptor subunit alpha-1 (Rattus norvegicus, UniProt P62813). In kind it is functional.
Sequence of Gamma-aminobutyric acid receptor subunit alpha-1 (P62813 whole entry): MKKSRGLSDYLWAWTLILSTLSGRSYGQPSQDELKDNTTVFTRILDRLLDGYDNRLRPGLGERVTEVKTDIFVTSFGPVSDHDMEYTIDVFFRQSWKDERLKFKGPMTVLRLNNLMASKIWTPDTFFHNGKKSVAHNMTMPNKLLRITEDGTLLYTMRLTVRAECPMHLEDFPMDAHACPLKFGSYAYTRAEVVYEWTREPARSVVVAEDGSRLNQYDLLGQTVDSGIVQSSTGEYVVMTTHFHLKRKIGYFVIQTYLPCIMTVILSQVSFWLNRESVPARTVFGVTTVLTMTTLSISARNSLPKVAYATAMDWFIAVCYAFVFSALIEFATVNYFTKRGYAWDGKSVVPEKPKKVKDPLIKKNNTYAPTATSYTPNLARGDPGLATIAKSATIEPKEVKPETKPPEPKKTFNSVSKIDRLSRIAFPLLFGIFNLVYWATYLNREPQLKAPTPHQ
In test [10] the target is Histamine H2 receptor (Homo sapiens, UniProt P25021). It counts as functional, cell-based.
Sequence of Histamine H2 receptor (P25021 whole entry): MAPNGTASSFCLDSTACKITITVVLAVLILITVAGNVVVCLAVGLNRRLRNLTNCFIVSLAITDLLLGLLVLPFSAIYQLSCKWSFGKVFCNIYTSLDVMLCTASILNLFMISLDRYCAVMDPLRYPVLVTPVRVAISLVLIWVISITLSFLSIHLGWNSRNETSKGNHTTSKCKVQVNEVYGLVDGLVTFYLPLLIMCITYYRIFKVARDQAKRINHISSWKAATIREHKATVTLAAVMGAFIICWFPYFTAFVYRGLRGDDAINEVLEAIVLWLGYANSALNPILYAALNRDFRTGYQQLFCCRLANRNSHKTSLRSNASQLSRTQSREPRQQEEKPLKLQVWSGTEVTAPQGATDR
Test [11] deals with Melanocortin receptor 3 (Homo sapiens, UniProt P41968).
Sequence of Melanocortin receptor 3 (P41968 whole entry): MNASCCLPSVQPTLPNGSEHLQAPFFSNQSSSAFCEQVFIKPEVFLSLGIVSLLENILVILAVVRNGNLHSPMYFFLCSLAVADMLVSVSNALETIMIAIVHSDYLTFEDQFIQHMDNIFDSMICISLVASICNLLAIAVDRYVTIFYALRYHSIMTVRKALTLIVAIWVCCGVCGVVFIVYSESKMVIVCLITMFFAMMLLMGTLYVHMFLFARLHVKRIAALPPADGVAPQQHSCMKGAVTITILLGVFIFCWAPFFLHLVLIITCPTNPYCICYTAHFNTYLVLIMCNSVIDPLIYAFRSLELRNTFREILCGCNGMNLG
Further: assay procedure not described here.

Usually AC50 stands for the concentration at which the activity in the assay is half-maximal. Read a high AC50 as activity only at high concentration. Take `CN1CCC[C@@H]1Cc1c[nH]c2ccc(CCS(=O)(=O)c3ccccc3)cc12`: the half-maximal activity concentration (AC50) in [1] and in test [2] was above 30 µM in each case.
Turning to `COc1nccnc1NS(=O)(=O)c1ccc(N)cc1`, the concentration at half-maximal activity (AC50) in test [1] and in [2] was above 30 µM each time.
For the compound `O=C(Nc1cccc2c(=O)cc(-c3nnn[nH]3)oc12)c1ccc(OCCCCc2ccccc2)cc1`, the half-maximal activity concentration (AC50) in test [1] and in test [2] was above 30 µM in each case.
Regarding `NC(=O)c1nc(F)c[nH]c1=O`, the concentration at half-maximal activity (AC50) in [1] and in [2] was above 30 µM throughout.
In the case of `CN(C)CCCN1C(=O)c2cc([N+](=O)[O-])ccc2Oc2ccccc21`, the concentration at half-maximal activity (AC50) in [1] and in [2] was above 30 µM in each case.
As to `O=S(=O)(O)CCS` [2-MERCAPTOETHANESULFONIC ACID], the concentration at half-maximal activity (AC50) in test [1] and in [2] was above 30 µM each time.
In the case of `CC1(C)S[C@@H]2[C@H](NC(=O)[C@H](N)c3ccc(O)cc3)C(=O)N2[C@H]1C(=O)O` [AMOXICILLIN], the half-maximal activity concentration (AC50) in test [3], in test [4], in test [5], in test [6], in test [7] and in test [8] was above 30 µM throughout. For the same compound, the concentration at half-maximal activity (AC50) in [9], in test [10] and in test [11] was above 30 µM each time.
For `CNCC[C@@H](Oc1ccccc1C)c1ccccc1` [ATOMOXETINE], the AC50 in test [3], in [4], in test [6], in test [7], in test [8] and in [10] was above 30 µM throughout. For the same compound, the AC50 in test [11] was above 30 µM.
As to `O=C(O)COc1nn(Cc2ccccc2)c2ccccc12` [BENDAZAC], the concentration at half-maximal activity (AC50) in test [1] and in test [2] was above 30 µM each time.
As for `Cc1ccc([C@@H]2O[C@H](CO)[C@@H](O)[C@H](O)[C@H]2O)cc1Cc1ccc(-c2ccc(F)cc2)s1` [CANAGLIFLOZIN ANHYDROUS], the AC50 in test [1] and in test [2] was above 30 µM in each case.
As to `O=C(O)CCCc1ccc(N(CCCl)CCCl)cc1` [CHLORAMBUCIL], the AC50 in test [1] and in [2] was above 30 µM each time.
For `CN(C)CCN(Cc1ccc(Cl)cc1)c1ccccn1` [CHLOROPYRAMINE], the concentration at half-maximal activity (AC50) in test [1] and in [2] was above 30 µM throughout.
As to `O=C(O)c1cc(=O)c2ccccc2o1` [CHROMOCARB], the concentration at half-maximal activity (AC50) in [1] and in [2] was above 30 µM each time.
For the compound `Clc1cccc(Cl)c1N=C1NCCN1` [CLONIDINE], the AC50 in [3] was above 10 µM; in test [4] it was above 30 µM; in test [5], above 10 µM; in test [6], above 30 µM; in test [7] it was above 10 µM; in test [8] it was above 30 µM. Moreover, the results for the concentration at half-maximal activity (AC50) in [9], in test [10] and in test [11] were above 10 µM, 0.39 µM and above 30 µM, respectively.
Regarding `CN(CC(=O)O)C(=N)N` [CREATINE], the AC50 in test [1] and in [2] was above 30 µM in each case.
Turning to `N[C@@H](CSSC[C@H](N)C(=O)O)C(=O)O` [CYSTINE], the concentration at half-maximal activity (AC50) in [1] and in [2] was above 30 µM each time.
As for `CN1C[C@H](C(=O)N[C@]2(C)O[C@@]3(O)[C@@H]4CCCN4C(=O)[C@H](Cc4ccccc4)N3C2=O)C[C@@H]2c3cccc4[nH]cc(c34)C[C@H]21` [DIHYDROERGOTAMINE], the AC50 was above 30 µM in [3]; above 30 µM in [4]; 0.14 µM in test [5]; above 10 µM in [7]; above 30 µM in test [8]; above 10 µM in test [9]. Besides, the values for the AC50 in test [10] and in test [11] were 0.62 µM and above 30 µM, respectively.
In the case of `CNCC[C@H](Oc1cccc2ccccc12)c1cccs1` [DULOXETINE], the AC50 in test [3] is above 30 µM; in test [4], above 30 µM; in test [5], 8.9 µM; in test [6], above 30 µM; in test [7], above 10 µM; in [8], above 30 µM. The figures for the half-maximal activity concentration (AC50) in test [9], in test [10] and in test [11] were above 10 µM, above 10 µM and 22.7 µM, respectively.
Turning to `Cn1c(=O)c2c(ncn2CC(O)CO)n(C)c1=O` (centres undefined) [DYPHYLLINE], the AC50 in [1] and in test [2] was above 30 µM in each case.
Turning to `CNCCC=C1c2ccccc2CCc2ccccc21` [NORTRIPTYLINE], the AC50 in test [3], in test [4], in test [5], in test [6], in test [7] and in test [8] was above 30 µM in each case. Besides, the concentration at half-maximal activity (AC50) in test [9] is above 30 µM; in [10] it was above 30 µM; in test [11], 11 µM.
On to `COc1ccc(Cc2nccc3cc(OC)c(OC)cc23)cc1OC` [PAPAVERINE], for which the AC50 in [4], in test [5], in test [6], in test [7], in [8] and in [9] was above 30 µM throughout. Also, the AC50 in [10] and in test [11] was above 30 µM each time.
As for `CNC[C@H](O)c1cccc(O)c1` [PHENYLEPHRINE], the AC50 in [1] is above 30 µM; in test [3], above 10 µM; in [4], above 30 µM; in test [5], above 30 µM; in test [6], above 30 µM; in test [7], above 10 µM. The AC50 in [8] was above 30 µM; in [9] it was above 10 µM; in test [10] it was above 10 µM; in test [11] it was above 30 µM.
As for `NC(=O)c1ncn([C@@H]2O[C@H](CO)[C@@H](O)[C@H]2O)n1` [RIBAVIRIN], the AC50 in test [4], in test [5], in [6], in test [7], in test [8] and in [9] was above 10 µM in each case. Moreover, the concentration at half-maximal activity (AC50) in [10] and in test [11] was above 10 µM each time.
For `O=C(Nc1c(Cl)cncc1Cl)c1ccc(OC(F)F)c(OCC2CC2)c1` [ROFLUMILAST], the AC50 in test [3], in test [4], in test [5], in [6], in [7] and in test [8] was above 30 µM throughout. Besides, the AC50 in test [9], in test [10] and in test [11] was above 30 µM throughout.
